Experimental findings from US20040170653A1, “Tumour peptide antigen produced from human mdm2 proto-oncogene” (priority 2001, published 2004) are described below.

One test concerns the target HLA-A2.1 (Homo sapiens, UniProt P04439, D140Y/D185E/D98H/E176V/E277Q/G131W/G231S/I119V/I121R/I166T/I218V/L300P/L318F/N151K/N90K/P208A/P217A/Q86G/Q94H/R138H/R169H/T345S). Briefly: Competition test: inhibition of A2.1 binding of peptide p53 264-272, read as p53-specific CTL lysis of loaded EA2 cells. The conditions noted are these: for A2.1-binding activity (in words): competitive binding test; for inhibition of the A2.1 binding of the competing peptide p53 264-272: EA2 cells with 0.01 μg p53 264-272, 4-hour test.

Test [1] deals with A2K^b- and CD8×A2K^b transgenic mice. Briefly: A2.1-restricted immunogenicity of synthetic peptides after immunization; cytotoxicity test of induced CTL on peptide-loaded T2A2K^b cells. Particulars: peptide immunization in IFA, in vitro stimulation, 4-hour cytotoxicity test. It counts as in vivo, mouse.
The test system of another test is resting T cells. Briefly: CTL recognition of resting lymphohemopoietic cells, 6-hour cytotoxicity test. It counts as cell-based. The conditions noted are these: cells loaded with peptide 10 μM.
The next test deals with T2 cells. Briefly: Cytotoxicity test (51Cr release) of hdm2 81-88-specific CTL on peptide-loaded T2 target cells (peptide titration, peptide specificity). It counts as cell-based, human. The conditions noted are these: for absolute maximal lysis: peptide titration.
The next test concerns mature DC. Briefly: CTL recognition of activated mature dendritic cells, 6-hour cytotoxicity test. It is filed as cell-based. The conditions noted are these: cells loaded with peptide 10 μM.
Another test relates to EL4 cells (H-2^b). Briefly: Cytotoxicity test of hdm2 81-88-specific CTL on peptide-loaded A2.1-negative EL4 cells (A2.1 restriction). It is filed as cell-based, mouse.
A further test concerns PBMC. Briefly: CTL recognition of resting lymphohemopoietic cells, 6-hour cytotoxicity test. Particulars: cells loaded with peptide 10 μM. It counts as cell-based.
The subject of test [2] is tyrosinase-specific CTL clone IVSB. Briefly: CTL recognition of antigen-activated T cells, 6-hour cytotoxicity test. It counts as cell-based, human. The conditions noted are these: cells loaded with peptide 10 μM. As for the experimental part: FIG. 22: Absence of substantial recognition of antigen-activated T cells. CTL A2 81, CTL CD8×A2 K^b 81, allo-A2.1-reactive CTL and CTL CD8×A2 K^b Flu M1 were tested as effector cells under the E:T ratios indicated in a 6-hour cytotoxicity test against tyrosinase-specific CTL clone IVSB (●) and the same cells loaded with hdm2 81-88 peptide (10 μM) (▴). The target cells were treated with the anti-A2.1 monoclonal antibody PA2.1 as shown (∘).
An A2.1-positive CTL clone “IVSB” having specificity for the tyrosinase peptide 369-377 was produced and made available using technically customary methods.
The lytic reactivity of the effector cells against various target cells was checked in a ^51Cr release test (Theobald et al., 1995). T2 and T2A2 K^b cells were employed as target cells for peptide titration tests. 1-5 Mio target cells were labeled for 60-90 min with 150 μCi of Na (^51Cr) 04 (1 mCi/ml) (NEN Life Science, Belgium). […] The cells were then centrifuged off (1300 rpm, 5° C., 9 min), the supernatant (0.1 ml/well) was taken off and the ^51Cr release was measured using a gamma-“counter” (Canberra Packard, Dreieich). The percentage specific lysis (SL) was calculated according to the following formula: [formula] […]

In another test the test system is resting B cells. Briefly: CTL recognition of resting lymphohemopoietic cells, 6-hour cytotoxicity test. It is filed as cell-based. The conditions noted are these: cells loaded with peptide 10 μM.

Read-outs that look alike come from different tables or passages of the source.

Take “hdm2 101-110: intermediately binding synthetic hdm2 peptide, residues 101-110 (TMIYRNLVVV; UniProt Q00987 101-110, looked up, fragment)”: the “A2.1-binding activity (in words)” value in the test with HLA-A2.1 is reported as “intermediately binding”. Further, in test [1], the “A2.1-restricted and peptide-specific CTL response” value was “demonstrated”.
For the substance “tyrosinase 369-377: A2.1-binding peptide tyrosinase 369-377, positive control [reference compound]”, the “inhibition of the A2.1 binding of the competing peptide p53 264-272” value (“inhibition” below) with HLA-A2.1 (3 μg test peptide) and with HLA-A2.1 (10 μg test peptide) was 100% in each case.
For “LLGDLFGV [hdm2 81-88, oligopeptide, amino acid positions 81 to 88 of the hdm2 proto-oncoprotein]”, the “CTL recognition after loading with exogenous peptide” value in the test with resting T cells, in the test with PBMC and with resting B cells was “reconstituted” throughout. Further, the EC50 with T2 cells (CTL line A2 81, E:T 10:1, 4-hour test, read-out: peptide concentration at half-maximal lysis of the target cells) is 0.069 nM; with T2 cells (CTL line CD8×A2K^b 81, E:T 10:1, 4-hour test, read-out: peptide concentration at half-maximal lytic activity) it was 0.036 nM; in the test with T2 cells (I° CTL A2 81, 6-hour test, read-out: peptide concentration at half-maximal lysis of the target cells), 0.95 nM; in the test on T2 cells (I° CTL CD8×A2 K^b 81, 6-hour test, read-out: peptide concentration at half-maximal lysis of the target cells), 0.2 nM. Besides, in the test on T2 cells (CTL lines A2 81 and CD8×A2 K^b 81, 4-hour test), the “lysis of peptide-loaded T2 cells by both hdm2 81-88-specific CTL lines” value is “lyzed efficiently”. Moreover, the absolute maximal lysis with T2 cells (I° CTL A2 81) came to 62%; in the test with T2 cells (I° CTL CD8×A2 K^b 81) it was 100%. On HLA-A2.1 (10 μg test peptide), the “inhibition” value is recorded as 100%. Further, at HLA-A2.1, the “A2.1-binding activity (in words)” value is listed as “strongly binding”. Moreover, the “A2.1-restricted and peptide-specific CTL response” value in test [1] is listed as “demonstrated”. Besides, the “CTL lysis after loading with exogenous peptide” value in the test on mature DC is given as “reconstituted”; in test [2], “reconstitute”. For the same substance, the “recognition of peptide-loaded EL4 cells by CTL induced by hdm2 81-88” value in the test on EL4 cells (H-2^b) (CTL from immunized A2K^b- or CD8×A2K^b-transgenic mice, 2 μg peptide) is “not recognized”. In the test with EL4 cells (H-2^b) (CTL lines A2 81 and CD8×A2 K^b 81), the “lytic activity of hdm2 81-88-reactive CTL lines on peptide-loaded EL4 cells” value is “no lytic activity at all”.
“hdm2 48-57: synthetic hdm2 peptide, residues 48-57 (YTMKEVLFYL; UniProt Q00987 48-57, looked up, fragment)”: the “inhibition” value in the test with HLA-A2.1 (10 μg test peptide) is listed as 100%.
Take “hdm2 33-41: synthetic hdm2 peptide, residues 33-41 (LLLKLLKSV; UniProt Q00987 33-41, looked up, fragment)”: the “inhibition” value with HLA-A2.1 (10 μg test peptide) came to 100%. For the same substance, the “A2.1-binding activity (in words)” value with HLA-A2.1 is listed as “strongly binding”. For the same substance, in test [1], the “A2.1-restricted and peptide-specific CTL response” value is “demonstrated”.
Consider “hdm2 80-88: synthetic hdm2 peptide, residues 80-88; contaminated with hdm2 81-88 (DLLGDLFGV; UniProt Q00987 80-88, looked up, fragment)”, for which the “recognition of HPLC-purified peptide by hdm2 81-88-specific CTL” value in the test with T2 cells (HPLC fraction 23, T2 cells, CTL CD8×A2 K^b 81, E:T 20:1) was “cross-reactivity”. The “inhibition” value with HLA-A2.1 (10 μg test peptide) amounted to 100%. The “A2.1-binding activity (in words)” value in the test with HLA-A2.1 is on record as “strongly binding”. For the same substance, the “A2.1-restricted and peptide-specific CTL response” value in [1] is “demonstrated”.
